These results are taken from patent US10414759B2, “Phenylthiazoles and uses thereof” (Purdue Research Foundation, priority 2017, dated 2019).

Data set [1] concerns human colorectal (Caco-2) cell. Briefly: In vitro cytotoxicity against Caco-2 cells (MTS). The data set is classed as cell-based. Particulars: at 32 μg/mL. As to the method: Tested compounds were assayed (at concentrations of 16, 32, and 64 μg/mL) against a human colorectal (Caco-2) cell to determine the potential toxic effect to mammalian cells in vitro. Briefly, cells were cultured in Dulbecco's Modified Eagle Medium (DMEM) supplemented with 20% fetal bovine serum (FBS), non-essential amino acids (1×), and penicillin-streptomycin at 37° C. with CO2 (5%). Control cells received DMSO alone at a concentration equal to that in drug-treated cell samples. The cells were incubated with the compounds (in triplicate) in a 96-well plate at 37° C. with CO2 (5%) for two hours. The assay reagent MTS 3-(4,5-dimethylthiazol-2-yl)-5-(3-carboxymethoxyphenyl)-2-(4-sulfophenyl)-2H-tetrazolium) (Promega, Madison, Wis., USA) was subsequently added and the plate was incubated for four hours. Absorbance readings (at OD490) were taken using a kinetic microplate reader (Molecular Devices, Sunnyvale, Calif., USA). The quantity of viable cells after treatment with each compound was expressed as a percentage of the viability of DMSO-treated control cells (average of triplicate wells±standard deviation). The toxicity data was analyzed via a two-way ANOVA, with post hoc Sidak's multiple comparisons test (P<0.05), utilizing GraphPad Prism 6.0 (GraphPad Software, La Jolla, Calif.).

The next data set deals with S. aureus ATCC 6538. Put plainly: MIC/MBC S. aureus strains (Table 8). The data set is classed as cell-based. The conditions noted are these: Staphylococcus aureus, ATCC6538. Put shortly: (§1)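 S. aureus: ~5×10^5 CFU/mL in CAMHB, from 0.5 McFarland suspension. S. pneumoniae: diluted in TSB.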
Another data set deals with MRSA (2658 RCMB). Put plainly: MIC against MRSA (2658 RCMB), broth dilution. The data set is classed as cell-based, Staphylococcus aureus. The conditions noted are these: Staphylococcus aureus; Table 7; initial screening, MRSA (2658 RCMB); read-out: minimum inhibitory concentration (MIC). An outline of the steps: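 Broth dilution in cation-adjusted Mueller-Hinton broth with an inoculum of about 5×10^5 CFU/mL (from a 0.5 McFarland suspension), using triplicate serial dilutions. MIC was the lowest concentration with no visible growth by visual inspection, reported as the mean of triplicates.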
(In general: In broth dilution the organism is exposed to a series of concentrations in liquid medium.)

In the next data set the test system is S. aureus NRS107. Briefly: MIC/MBC S. aureus strains (Table 8). In kind it is cell-based, Staphylococcus aureus. Particulars: Staphylococcus aureus; Table 8; S. aureus NRS107. As for the experimental part: (§2) A bacterial solution equivalent to 0.5 McFarland standard was prepared and diluted in cation-adjusted Mueller-Hinton broth (CAMHB) to achieve a bacterial concentration of about 5×10^5 CFU/mL and seeded in 96-well plates. Enterococcus faecium was diluted in brain heart infusion broth. Enterococcus faecalis, Streptococcus pneumonia and Listeria monocytogenes were diluted in tryptone soya broth (TSB).

For another data set, the system named is MRSA USA400 (NRS123). Put plainly: Multi-step resistance selection experiment. The data set is classed as cell-based, Staphylococcus aureus. Particulars: MRSA USA400, sub-lethal doses, 14 daily passages. As to the method:
To determine if MRSA would be capable of forming resistance to the compounds quickly, a multi-step resistance selection experiment was conducted, as described previously. The broth microdilution assay was utilized to determine the MIC of the tested compounds and rifampicin exposed to MRSA USA400 (NRS123) for 14 passages over a period of two weeks. Resistance was classified as a greater than four-fold increase in the initial MIC, as reported elsewhere.

The nature of data set [2]: In vivo PK in rats after single IV bolus injection. Also noted: species or system Sprague-Dawley (SD) rats. As for the experimental part:
In vivo Pharmacokinetics. Pharmacokinetic studies were performed in male naïve Sprague-Dawley (SD) rats (three animals) following Institutional Animal Care and Use Committee guidelines. An IV bolus of a 5 μM solution of compound 19 was directly administered via tail-vein injection. Blood samples were collected over a 12-hour period post dose into Vacutainer tubes containing EDTA-K2. Plasma was isolated, and the concentration of tested compounds in plasma was determined with LC/MS/MS after protein precipitation with acetonitrile. Two-compartmental pharmacokinetic analysis was performed on plasma concentration data in order to calculate pharmacokinetic parameters.

The subject of data set [3] is Methicillin-resistant Streptococcus pneumoniae ATCC 700677. Put plainly: MIC/MBC Gram-positive pathogens (Table 9). The data set is classed as cell-based. The conditions noted are these: ATCC700677. An outline of the steps:
as §1

Data set [4] relates to Enterococcus faecalis ATCC 51299 (VRE). Briefly: MIC/MBC Gram-positive pathogens (Table 9). In kind it is cell-based. The conditions noted are these: Table 9, Enterococcus faecalis ATCC 51299 (VRE). As to the method:
as §2

Data set [5] has as its system Cephalosporin-resistant Streptococcus pneumoniae ATCC 51916. Briefly: MIC/MBC Gram-positive pathogens (Table 9). The data set is classed as cell-based. The conditions noted are these: ATCC51916. An outline of the steps: as §1
In the next data set the test system is MRSA (USA300). Put plainly: Time-kill assay. In kind it is cell-based, Staphylococcus aureus. Particulars: 3.0×MIC. As for the experimental part:
Aliquots (100 μL) were taken from each sample after 2, 4, 6, 8, 10, 12, and 24 hours, serially diluted in phosphate-buffered saline, and transferred to Trypticase soy agar (TSA) (Becton, Dickinson and Company, Sparks, Md., USA) plates. Plates were incubated at 37° C. for at least 16 hours before counting viable CFU/mL to determine the time required to reduce the bacterial cell count by 3-log10.

≈ marks a conversion by molar mass, not a printed value.

Take `Cc1nc(-c2ccc(C(C)(C)C)cc2)sc1-c1ccnc(NCCN)n1` [Compound 54, N-(4-(2-(4-(tert-Butyl)phenyl)-4-methylthiazol-5-yl)pyrimidin-2-yl)ethane-1,2-diamine]: in [1], the “tolerability to human colorectal cells, in words” value is on record as “highly tolerable”. Further, the MIC is 4 µg/mL (≈ 10.9 µM) in the data set with S. aureus ATCC 6538; 1.17 µg/mL (≈ 3.18 µM) with MRSA (2658 RCMB); 4 µg/mL (≈ 10.9 µM) in the data set on S. aureus NRS107; 2 µg/mL (≈ 5.44 µM) in [3]; 16 µg/mL (≈ 43.5 µM) in data set [4]. For the same compound, the “increase in MIC by/after the ninth passage” value in the data set with MRSA USA400 (NRS123) is reported as “one-fold”. Further, in [2], the AUC (usually concentration integrated over time) is 3980 ng·h/mL. For the same compound, the “CL (clearance)” value in data set [2] worked out at 1.26 L/h. Besides, the “Vdss (volume of distribution at the steady state)” value in data set [2] is 3.39 L. Besides, the “Vβ (volume of distribution in 2nd compartment, peripheral tissues)” value in data set [2] is listed as 16.36 L. For the same compound, in data set [2], the “t1/2 (half-life)” value is recorded as 9.03 h. The minimum bactericidal concentration (MBC) in data set [3], in [4] (read-out: MBC) and in data set [5] was 16 µg/mL (≈ 43.5 µM) each time. Further, the “bactericidal / bacteriostatic behaviour in time-kill assay, in words” value in the data set on MRSA (USA300) (MRSA) was “rapid bactericidal activity”. Besides, in the data set on MRSA (USA300) (t-butyl series), the “time to completely eradicate the MRSA inoculum” value is reported as “within two to four hours”.
